Measured values: publication PMC12811659

Assays:
[1] = not given; remark: listed apart in the source
[2] = not given; remark: listed apart in the source

SMILES | trans-isomer fraction, native state [%] | trans-isomer fraction after 520 nm irradiation [1] [%] | cis-isomer fraction after 365 nm irradiation [2] [%]
CC[C@H](C)[C@H](NC(=O)Cn1nc(C)c(/N=N/c2ccccc2)c1C)C(=O)N[C@@H](CO)C(=O)N[C@@H](C)C(=O)O | 85 | 87 | –
CC[C@H](C)[C@H](NC(=O)Cn1nc(C)c(/N=N\c2ccccc2)c1C)C(=O)N[C@@H](CO)C(=O)N[C@@H](C)C(=O)O | – | – | > 98
